Like-named read-outs stand apart in the source and are kept apart here.
How the values were obtained:
[1] = Membrane filtration permeability, unsoiled system; assay type: physicochemical
Description: (§1) A Membrex Benchmark GX (Fairfield, N.J.) lab-scale rotating membrane filtration unit was used for all permeability studies. Membrane cartridges were made of polyacrylonitrile with a 0.05 um pore size (Part #0567, Osmonics Corp., Minnetonka, Minn.).
(§2) One to two liters of the aqueous alkaline solution of the present invention in its diluted form, usually including 0.15% surfactant and 0.05% potassium carbonate, was placed in both the customer (or initial) and holding tanks (appropriately sized glass beakers). For experiments with soil, oil was added at a 1% level to both tanks. The tanks were heated with magnetic stirring on hotplates to either 140° F. or 100° F. The temperature was maintained throughout each experiment with RTD temperature probes interfaced to the hotplates. The rotation rate of the membrane filtration unit was 3000 RPM. Material from the holding tank was pumped into the membrane filtration unit at a flow of 600 ml/min. The outlet pressure was adjusted to achieve a 5 psi pressure drop across the membrane, resulting in permeate flows of approximately 100-300 ml/min depending on the soil and the operating temperature. The transfer line from the customer tank to the holding tank was adjusted to equal the permeate flow rate in order to maintain a constant level in both customer and holding tank. One cycle or turnover is defined to be the time at which the cumulative volume of permeate equals the initial volume of the customer tank. Permeate samples were collected at 1, 5 and/or 10 cycles.
(§3) A 0.05 um PAN membrane was used in the filtration.
(§4) Surfactant levels in permeate samples were determined by TOC (unsoiled studies only) and by HPLC/ELSD.
(§5) A sample of the initial cleaning solution was collected before addition of oil (if added) and before starting membrane operation. This initial cleaning soultion sample is defined to be the 100% permeable concentration. Serial dilutions of the 100% permeable sample were made to obtain calibration samples for the HPLC analysis. Point-to-point calibration curves were used for HPLC quantitation due to the non-linear nature of the ELSD response. For TOC analysis the initial cleaning solution sample was used for the single point calibration. For surfactants with multiple surfactant oligomers, individual oligomer permeability and overall surfactant permeability were determined. The overall surfactant permeability was calculated from the average of the oligomer results, except for Surfonic® L108/85-5 where the result for major C8 hydrophobe was used.

[2] = Membrane filtration permeability, Pennzoil 80W90 soiled system; assay type: physicochemical; details: 1% oil, 140° F., HPLC
Description: as §1, §2, §3, §4, §5
(§6) Example 3 was performed in the same way as Example 2 but in the presence of soil. The method described in Example 2 was followed in Example 3. The permeability performance of surfactants in soiled systems is of interest given the desire to separate the aqueous cleaning materials from soil. Two oils were evaluated in this study: Cosmoline® 1102 and Pennzoil® 80W90 oil.

[3] = 1% aqueous solutions, Table H; cited from earlier work
[4] = Surfactant Log P estimate by reversed phase HPLC
Description: Reversed phase HPLC was performed on all samples. Samples were filtered through Gelman 0.45 um PVDF filters and analyzed. Almost all separations were utilized the following conditions:
Column: Supelcosil LC-18 column, 15 cm×4.6 mm, 5 um particle size (Supelco, Bellefonte, Pa.).
Flow: 1 ml/min. Temperature: ambient Injection Volume: 50 ul Mobile Phase A: 70:30 methanol: water (v+v) with 10 mM ammonium acetate.
Mobile Phase B: 100% methanol.
The ELSD was operated at 40° C., with a nitrogen flow rate of 1.8 l/min. A Chromeleon Chromatography Data system (Dionex Corp. Sunnyvale, Calif.) was used to collect and process the HPLC data.
A reversed phase HPLC method was used to estimate surfactant Log P values. The HPLC capacity factor, k′, for each material was determined according to the equation: […]
The column void time was determined from the elution time of unretained salt. […] (FIG. 6).
The reversed phase HPLC separation used herein separates primarily based on the size of the hydrophobe. […] The peak maximum retention time was used to determine the Log P estimate for surfactants with either the narrow or the broad single peak profiles. […] (FIG. 7). […] In addition, the retention time of the individual hydrophobe peaks was used to calculate Log P values for these oligomers.

[5] = Membrane filtration permeability, Cosmoline 1102 soiled system; assay type: physicochemical; details: 1% oil, 140° F., HPLC
Description: as §1, §2, §3, §4, §5, §6
The permeability of four surfactants was evaluated at 100° F. in the presence of 1% Cosmoline® 1102 oil. […] The results are listed in Table N and are plotted in FIG. 26 with a comparison to the 140° F. results.

[6] = known values used for calibration; cited from earlier work
[7] = unsoiled, Cycle 5, 140° F., HPLC (Table M)
[8] = unsoiled, Cycle 1, 0.05 um PAN membrane
[9] = unsoiled, Cycle 5, 0.05 um PAN membrane
[10] = unsoiled, Cycle 10, 0.05 um PAN membrane
[11] = single peak or individual hydrophobe peak, alkyl benzene standards

| Compound | Permeability, Pennzoil80W90-Cycle 5 [2] | Cloud Point (° C.) [3] | Permeability, Cosmoline 1102-Cycle 5 [5] | % Permeability ([1]; not told) | LogP, HPLC estimate [4] | other results |
| --- | --- | --- | --- | --- | --- | --- |
| CCCCCCCCCCCC[N+](C)(C)[O-] [Barlox ® 12, dodecyl dimethyl amine oxide] | 63% | None | – | – | – | % Permeability [1, 7]: 80%; chromatographic logP [4]: 4.5 |
| CCCCCCCC[N+](C)(C)[O-] [Mackamine ® C8, linear octyl dimethyl amine oxide] | 95% | None | 95% | – | – | % Permeability (HPLC) [1, 8]: 104%; % Permeability (TOC) [1, 8]: 101%; % Permeability (HPLC) [1, 9]: 105%; % Permeability (TOC) [1, 9]: 108%; % Permeability [1, 7]: 105%; % Permeability (HPLC) [1, 10]: 102%; % Permeability (TOC) [1, 10]: 117%; Permeability, Cosmoline 1102-Cycle 1 [5]: 94%; Permeability, Cosmoline 1102-Cycle 10 [5]: 99%; LogP, HPLC estimate [4, 11]: 2.5 |
| CCCCCCCCCC[N+](C)(C)[O-] [Mackamine ® C10, linear decyl dimethyl amine oxide] | – | None | 53% | – | – | LogP, HPLC estimate [4, 11]: 3.4 |
| CCc1ccccc1 [ethyl benzene] | – | – | – | – | – | Log P of alkylbenzene retention time standards [6]: 3.13 |
| CCCCCCc1ccccc1 [hexyl benzene] | – | – | – | – | – | Log P of alkylbenzene retention time standards [6]: 5.24 |
| CCCCCCCCc1ccccc1 [octyl benzene] | – | – | – | – | – | Log P of alkylbenzene retention time standards [6]: 6.30 |
| C8 mono-glucoside [Glucopon ® 425/C8] | 97% | – | 74% | 104% | 2.5 | – |
| C10 mono-glucoside [Glucopon ® 425/C10] | 77% | – | 22% | 87% | 3.2 | – |
| C12 mono-glucoside [Glucopon ® 425/C12] | 49% | – | <20% | 44% | 4.3 | – |
| C14 mono-glucoside [Glucopon ® 425/C14] | 39% | – | <20% | 35% | 5.2 | – |
| cocamidopropyl betaine ammonium salt [Foamtaine ® CAB-A] | – | None | 9% | – | 3.6 | – |

From US20040014624A1, “Recylable cleaning compositions” (priority 2003, published 2004)
